pKi: −log10 of the molar value.
How the values were obtained:
[1] = target: T1, Aurora-2 (Homo sapiens, UniProt O14965); assay: Aurora-A (Aurora-2) Inhibition Assay, coupled enzyme assay; assay type: biochemical; settings: enzyme inhibition data (Ki), Table 11; read-out: AurA Ki
T1 sequence (O14965 1-403): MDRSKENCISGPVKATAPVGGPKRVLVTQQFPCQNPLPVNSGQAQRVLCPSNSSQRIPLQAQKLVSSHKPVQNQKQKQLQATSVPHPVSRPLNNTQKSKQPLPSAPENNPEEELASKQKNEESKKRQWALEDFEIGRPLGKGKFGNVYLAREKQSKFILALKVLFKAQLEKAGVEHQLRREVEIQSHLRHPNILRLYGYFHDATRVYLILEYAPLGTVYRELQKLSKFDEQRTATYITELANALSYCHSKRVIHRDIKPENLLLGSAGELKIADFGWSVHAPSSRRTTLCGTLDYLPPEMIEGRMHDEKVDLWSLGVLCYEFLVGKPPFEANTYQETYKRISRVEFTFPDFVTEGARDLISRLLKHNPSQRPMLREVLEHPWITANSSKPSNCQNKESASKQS
Procedure: Compounds are screened for their ability to inhibit Aurora-2 using a standard coupled enzyme assay (Fox et al., Protein Sci., (1998) 7, 2249). Assays are carried out in a mixture of 100 mM Hepes (pH7.5), 10 mM MgCl2, 1 mM DTT, 25 mM NaCl, 2.5 mM phosphoenolpyruvate, 300 μM NADH, 30 μg/ml pyruvate kinase and 10 μg/ml lactate dehydrogenase. Final substrate concentrations in the assay are 400 μM ATP (Sigma Chemicals) and 570 μM peptide (Kemptide, American Peptide, Sunnyvale, Calif.). Assays are carried out at 30° C. and in the presence of 40 nM Aurora-2.
An assay stock buffer solution is prepared containing all of the reagents listed above, with the exception of Aurora-2 and the test compound of interest. 55 μl of the stock solution is placed in a 96 well plate followed by addition of 2 μl of DMSO stock containing serial dilutions of the test compound (typically starting from a final concentration of 7.5 μM). The plate is preincubated for 10 minutes at 30° C. and the reaction initiated by addition of 10 μl of Aurora-2. Initial reaction rates are determined with a Molecular Devices SpectraMax Plus plate reader over a 10 minute time course. IC50 and Ki data are calculated from non-linear regression analysis using the Prism software package (GraphPad Prism version 3.0cx for Macintosh, GraphPad Software, San Diego Calif., USA).

[2] = target: c-Met (Homo sapiens, UniProt P08581); assay: c-Met Inhibition Assay, coupled enzyme system; assay type: biochemical; settings: enzyme inhibition data (Ki), Table 11
In short: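 Pyruvate kinase/lactate dehydrogenase-coupled NADH assay in HEPES pH 7.5 with 80 nM c-Met, 200 μM ATP and 10 μM polyGluTyr at 30° C. Compound (0.006–12.5 μM final, 12-point) preincubated 10 min before ATP start; rates over 10 min gave Ki.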

Chain of c-Met (P08581 25-1390): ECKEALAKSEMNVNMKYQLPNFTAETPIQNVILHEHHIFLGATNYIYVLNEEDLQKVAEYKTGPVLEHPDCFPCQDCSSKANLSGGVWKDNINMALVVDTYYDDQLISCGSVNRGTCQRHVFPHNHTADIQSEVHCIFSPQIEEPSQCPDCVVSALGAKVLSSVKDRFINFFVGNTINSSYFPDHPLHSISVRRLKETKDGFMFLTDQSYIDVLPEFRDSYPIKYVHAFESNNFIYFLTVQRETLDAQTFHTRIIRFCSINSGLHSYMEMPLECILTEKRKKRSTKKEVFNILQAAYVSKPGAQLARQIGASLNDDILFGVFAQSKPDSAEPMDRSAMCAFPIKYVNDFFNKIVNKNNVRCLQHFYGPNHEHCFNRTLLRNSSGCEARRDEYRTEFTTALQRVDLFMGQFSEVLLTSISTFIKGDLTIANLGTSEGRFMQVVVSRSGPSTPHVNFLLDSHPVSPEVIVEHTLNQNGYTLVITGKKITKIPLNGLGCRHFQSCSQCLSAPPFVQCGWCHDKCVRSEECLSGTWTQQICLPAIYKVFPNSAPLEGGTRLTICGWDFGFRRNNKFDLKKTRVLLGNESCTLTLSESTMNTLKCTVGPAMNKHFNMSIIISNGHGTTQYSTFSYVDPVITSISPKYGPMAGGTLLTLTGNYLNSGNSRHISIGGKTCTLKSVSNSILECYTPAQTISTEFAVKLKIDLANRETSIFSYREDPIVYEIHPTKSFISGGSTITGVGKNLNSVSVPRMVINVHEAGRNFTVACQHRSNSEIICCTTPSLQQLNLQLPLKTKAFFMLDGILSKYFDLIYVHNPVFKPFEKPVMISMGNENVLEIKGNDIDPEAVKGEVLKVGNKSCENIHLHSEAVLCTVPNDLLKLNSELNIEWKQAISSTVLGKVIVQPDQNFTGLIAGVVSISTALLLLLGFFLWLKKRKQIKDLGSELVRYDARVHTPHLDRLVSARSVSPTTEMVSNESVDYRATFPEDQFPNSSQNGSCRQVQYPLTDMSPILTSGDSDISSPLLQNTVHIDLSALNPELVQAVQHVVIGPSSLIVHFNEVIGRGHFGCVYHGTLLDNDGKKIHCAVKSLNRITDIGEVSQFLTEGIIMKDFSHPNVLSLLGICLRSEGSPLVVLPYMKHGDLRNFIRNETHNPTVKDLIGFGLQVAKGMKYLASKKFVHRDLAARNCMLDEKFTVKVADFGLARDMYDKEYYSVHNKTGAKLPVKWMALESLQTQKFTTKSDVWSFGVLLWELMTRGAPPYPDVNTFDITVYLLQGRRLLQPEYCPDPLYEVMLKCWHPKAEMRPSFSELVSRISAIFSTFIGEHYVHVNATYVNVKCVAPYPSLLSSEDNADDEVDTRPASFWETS

pKi [1]	pKi [2]	SMILES
5.30 to 6.30	5.30 to 6.30	COc1ccccc1-c1cnc2c(-c3ccccn3)c(N)nn2c1 [Compound V-14]
> 6.30	> 6.30	CS(=O)(=O)Nc1cccc(-c2cnc3c(-c4ccccn4)c(N)nn3c2)c1 [Compound V-18]
5.30 to 6.30	> 6.30	Nc1nn2cc(-c3ccc(C(=O)NC4CCCO4)cn3)cnc2c1-c1ccccn1 (centres unmarked) [Compound V-96]
> 6.30	> 6.30	CC(C)CN(C)C(=O)c1ccc(-c2cnc3c(-c4ccccn4)c(N)nn3c2)nc1 [Compound V-97]
> 6.30	> 6.30	CCN(CC)C(=O)c1ccc(-c2cnc3c(-c4ccccn4)c(N)nn3c2)nc1 [Compound V-98]
5.30 to 6.30	> 6.30	Cc1ccc(-c2c(N)nn3cc(-c4ccncc4)cnc23)nc1 [Compound V-132]
> 6.30	> 6.30	Cc1ccnc(-c2c(N)nn3cc(-c4ccncc4)cnc23)c1 [Compound V-133]
5.30 to 6.30	5.30 to 6.30	Nc1nn2cc(-c3ccncc3)cnc2c1-c1ncccc1OCc1ccccc1 [Compound V-134]
5.30 to 6.30	5.30 to 6.30	Cc1cccnc1-c1c(N)nn2cc(-c3ccncc3)cnc12 [Compound V-135]
5.30 to 6.30	> 6.30	CC(C)N1CCN(c2ccc(-c3cnc4c(-c5ccccn5)c(N)nn4c3)cn2)CC1 [Compound V-146]
5.30 to 6.30	> 6.30	Nc1nn2cc(-c3ccc(N4CCNCC4)nc3)cnc2c1-c1ccccn1 [Compound V-151]
5.30 to 6.30	> 6.30	COCCNc1ccc(-c2cnc3c(-c4ccccn4)c(N)nn3c2)cn1 [Compound V-156]
5.30 to 6.30	> 6.30	CN(C)CCNc1ccc(-c2cnc3c(-c4ccccn4)c(N)nn3c2)cn1 [Compound V-159]
5.30 to 6.30	> 6.30	CN1CCCN(c2ccc(-c3cnc4c(-c5ccccn5)c(N)nn4c3)cn2)CC1 [Compound V-160]
5.30 to 6.30	> 6.30	CCN(CC)CCN(C)c1ccc(-c2cnc3c(-c4ccccn4)c(N)nn3c2)cn1 [Compound V-173]
> 6.30	5.30 to 6.30	Cc1cccc(-c2c(N)nn3cc(-c4ccncc4)cnc23)n1 [Compound V-178]
> 6.30	> 6.30	Nc1nn2cc(-c3ccncc3)cnc2c1-c1cc(N2CCCCC2)ncn1 [Compound V-179]
> 6.30	> 6.30	CCN(CC)c1cc(-c2c(N)nn3cc(-c4ccncc4)cnc23)ncn1 [Compound V-180]
> 6.30	> 6.30	CNc1cc(-c2c(N)nn3cc(-c4ccncc4)cnc23)ncn1 [Compound V-181]
> 6.30	> 6.30	CC(C)Nc1cc(-c2c(N)nn3cc(-c4ccncc4)cnc23)ncn1 [Compound V-182]
> 6.30	> 6.30	Nc1nn2cc(-c3ccncc3)cnc2c1-c1cc(NC2CCCCC2)ncn1 [Compound V-183]
> 6.30	> 6.30	Nc1nn2cc(-c3ccncc3)cnc2c1-c1cc(NCC2CCCCC2)ncn1 [Compound V-184]
> 6.30	> 6.30	CC(C)CNc1cc(-c2c(N)nn3cc(-c4ccncc4)cnc23)ncn1 [Compound V-185]
5.30 to 6.30	> 6.30	CNCCN(C)C(=O)c1cccc(-c2cnc3c(-c4ccccn4)c(N)nn3c2)c1 [Compound V-189]
5.30 to 6.30	> 6.30	CNCCCN(C)C(=O)c1cccc(-c2cnc3c(-c4ccccn4)c(N)nn3c2)c1 [Compound V-190]
> 6.30	> 6.30	Nc1nn2cc(-c3ccc(CO)cc3)cnc2c1-c1ccccn1 [Compound V-194]
> 6.30	> 6.30	Nc1nn2cc(-c3ccc4[nH]ccc4c3)cnc2c1-c1ccccn1 [Compound V-212]
5.30 to 6.30	5.30 to 6.30	COc1ccc(-c2cnc3c(-c4ccncc4)c(N)nn3c2)cc1 [Compound V-219]
5.30 to 6.30	> 6.30	Nc1nn2cc(-c3cccc(CO)c3)cnc2c1-c1ccccn1 [Compound V-221]

The next lines start with the molecule.

SMILES	pKi [1]	pKi [2]
CN1CCC(N(C)C(=O)c2cccc(-c3cnc4c(-c5ccccn5)c(N)nn4c3)n2)CC1 [Compound V-101]	5.30 to 6.30	> 6.30
CCN1CCN(C(=O)c2cccc(-c3cnc4c(-c5ccccn5)c(N)nn4c3)n2)CC1 [Compound V-102]	5.30 to 6.30	> 6.30
Nc1nn2cc(-c3cccc(C(=O)N4CCC(N)CC4)n3)cnc2c1-c1ccccn1 [Compound V-104]	5.30 to 6.30	> 6.30
C#CCN(C)C(=O)c1cccc(-c2cnc3c(-c4ccccn4)c(N)nn3c2)n1 [Compound V-106]	5.30 to 6.30	> 6.30
Nc1nn2cc(-c3cccc(C(=O)N4CCCC4CO)n3)cnc2c1-c1ccccn1 (centres unmarked) [Compound V-112]	5.30 to 6.30	> 6.30
CN(CCC#N)C(=O)c1cccc(-c2cnc3c(-c4ccccn4)c(N)nn3c2)n1 [Compound V-114]	5.30 to 6.30	> 6.30
CCN(C)C(=O)c1cccc(-c2cnc3c(-c4ccccn4)c(N)nn3c2)n1 [Compound V-115]	5.30 to 6.30	> 6.30
CCN(CCC#N)C(=O)c1cccc(-c2cnc3c(-c4ccccn4)c(N)nn3c2)n1 [Compound V-116]	5.30 to 6.30	> 6.30
CCN(CC)CCN(C)C(=O)c1cccc(-c2cnc3c(-c4ccccn4)c(N)nn3c2)n1 [Compound V-124]	5.30 to 6.30	> 6.30
CCN(CC)C(=O)c1cccc(-c2cnc3c(-c4ccccn4)c(N)nn3c2)n1 [Compound V-127]	5.30 to 6.30	> 6.30
COCCCN1CCN(C(=O)c2ccc(-c3cnc4c(-c5ccccn5)c(N)nn4c3)nc2)CC1 [Compound V-129]	> 6.30	> 6.30
CN(CCCN)C(=O)c1ccc(-c2cnc3c(-c4ccccn4)c(N)nn3c2)nc1 [Compound V-130]	5.30 to 6.30	> 6.30
COC(=O)C1CCCN1C(=O)c1cccc(-c2cnc3c(-c4ccccn4)c(N)nn3c2)n1 (centres unmarked) [Compound V-139]	5.30 to 6.30	> 6.30
Nc1nn2cc(-c3ccc(N4CCC[C@H]4CN4CCCC4)nc3)cnc2c1-c1ccccn1 [Compound V-152]	5.30 to 6.30	> 6.30
Nc1nn2cc(-c3cccc(C(=O)N4CCC[C@H]4CN4CCCC4)n3)cnc2c1-c1ccccn1 [Compound V-154]	5.30 to 6.30	> 6.30
CN(CCCN)C(=O)c1cccc(-c2cnc3c(-c4ccccn4)c(N)nn3c2)n1 [Compound V-155]	5.30 to 6.30	> 6.30
Nc1nn2cc(-c3ccc(N4CCC(N)CC4)nc3)cnc2c1-c1ccccn1 [Compound V-165]	> 6.30	> 6.30
CCN1CCN(c2ccc(-c3cnc4c(-c5ccccn5)c(N)nn4c3)cn2)CC1 [Compound V-166]	5.30 to 6.30	> 6.30
Nc1nn2cc(-c3cccc(C(=O)N4CCC[C@@H]4CN4CCCC4)n3)cnc2c1-c1ccccn1 [Compound V-175]	5.30 to 6.30	> 6.30
Nc1nn2cc(-c3ccc(N4CCC[C@@H]4CN4CCCC4)nc3)cnc2c1-c1ccccn1 [Compound V-176]	5.30 to 6.30	> 6.30
Nc1nn2cc(-c3ccc(C(=O)N4CCC[C@H]4CN4CCCC4)cn3)cnc2c1-c1ccccn1 [Compound V-177]	> 6.30	> 6.30
CNC(=O)c1cnc2c(-c3ccccn3)c(N)nn2c1 [Compound V-204]	5.30 to 6.30	5.30 to 6.30
Nc1nn2cc(C(=O)NC3CCCNC3)cnc2c1-c1ccccn1 (centres unmarked) [Compound V-206]	5.30 to 6.30	5.30 to 6.30
Nc1nn2cc(-c3ccc(CN4CCOCC4)cc3)cnc2c1-c1ccccn1 [Compound V-208]	> 6.30	5.30 to 6.30
COc1ccc(-c2cn3nc(N)c(-c4ccccn4)c3nc2C)cc1 [Compound V-216]	5.30 to 6.30	5.30 to 6.30
Nc1nn2cc(-c3cccc(CN4CCOCC4)c3)cnc2c1-c1ccccn1 [Compound V-225]	5.30 to 6.30	> 6.30
NC1NN2C=C(c3cccc(CN4CC[C@@H](N)C4)c3)C=NC2=C1c1ccccn1 (some centres unmarked) [Compound V-226]	5.30 to 6.30	> 6.30
CC(C)(O)C#Cc1cnc2c(-c3ccccn3)c(N)nn2c1 [Compound V-237]	5.30 to 6.30	> 6.30
Nc1nn2cc(C#CCO)cnc2c1-c1ccccn1 [Compound V-238]	5.30 to 6.30	> 6.30

— patent US7528138B2, “Pyrazolo[1,5-a]pyrimidines useful as inhibitors of protein kinases” (Vertex Pharmaceuticals Incorporated, priority 2004, dated 2009)
